Non-standard residues stand in square brackets, D forms with d. Residues, ends and D or L forms follow the SMILES beside them. ξ: configuration not given here. *: point of attachment. X3 = C[C@H](N*)C(=O)NS(C)(=O)=O; X4 = C[C@H](N*)C(=O)c1nccs1; boroAla = C[C@H](N*)B(O)O; ξA = CC(N)C(=O)O; CF3 = FC(F)(F)*; CH2Cl = ClC*

The target of this assay is T1, Escherichia coli rhomboid GlpG (Escherichia coli, UniProt P09391).
T1 construct: made in house; host or cells: E. coli C41(DE3)
Kind of assay: in vitro GlpG inhibition assay with fluorogenic transmembrane peptide substrate (apparent IC50). It is filed as biochemical. As to conditions: for IC50: 1 hr preincubation, 10 μM fluorogenic substrate KSp35, 0.05% (w/v) DDM; for fold decrease in potency compared with the parent compound 9: N-terminal truncation series. An excerpt: To gain insight into these preferences and their possible interactions, we have generated tetra- and pentapeptidyl chloromethylketones (CMK or cmk henceforth) harboring amino acids preferred in positions P5 to P1 by the Escherichia coli rhomboid GlpG (GlpG henceforth), using the sequence background of the Providencia TatA ([Stevenson et al., 2007]), represented by the parent compound Ac-IATA-cmk. We measured the inhibitory properties of this series of compounds using a newly developed in vitro assay employing a fluorogenic transmembrane peptide substrate ([Ticha et al., 2017]) that faithfully represents a native rhomboid substrate.
Figure 1 The Potency of Substrate-Derived Inhibitors Can be Improved by Modifying the Amino acid Sequence of the P5 to P1 Region (A) The parent inhibitor Ac-IATA-cmk was modified by introducing strongly preferred amino acids ([Zoll et al., 2014]) into the P4, P3, P2, and P5 positions to yield the listed compounds. Their apparent IC50 values were measured with 1 hr preincubation using 10 μM fluorogenic substrate KSp35 and 0.05% (w/v) DDM. The reported values are best-fit means with SD representative of 2–3 measurements. (B) The sequence-optimized peptidyl chloromethylketones were soaked into the native crystals of GlpG and structures of the complexes were solved by X-ray diffraction (for statistics, see Table S1). […] Note that in the Ac-RVRHA-cmk structure (right), the side chain of the Arg residue in the P5 position of the inhibitor has not been modeled due to poor or missing electron density peaks. (C) Interactions of RVRHA-cmk with GlpG were analyzed by Ligplot+ ([Laskowski and Swindells, 2011]). Ligands are shown as thick sticks with carbons in green, proteins as thin sticks with carbons in gray, hydrogen bonds as yellow dashed lines, and amino acids involved in van der Waals contacts are highlighted as transparent surfaces. The inhibitor forms covalent bonds with S201 and H254 via the chloromethylketone warhead, and it hydrogen bonds with the backbone of residues 196–198 from the L3 loop and residues 248–250 from the L5 loop. van der Waals contacts with the inhibitor are formed by the residues from the L3 loop of GlpG, by S193 and Q189 from TMD3, and by F146 and M120 from the L1 loop that pack against the Val side chain of the P4 position of the inhibitor, as observed previously ([Zoll et al., 2014]). (D) The conformations of peptide inhibitors bound to the active site of GlpG were compared by performing structural alignment of the complexes of VRHAcmk (PDB: 5MT7), RVRHAcmk (PDB: 5MT8), IATAcmk (PDB: 4QO2), and VRMAcho (PDB: 5F5B) in PyMOL ([Schrodinger, 2012]). […] The backbone of the ligands in all complexes has virtually identical conformation with the exception of the distortion of the oxyanion by the chloromethylketone, and the biggest differences are found in the conformation of the P2 side chain, which is not surprising, because almost any side chain can be accommodated in this position ([Zoll et al., 2014]). TEXT PRINTED IN THE PICTURE: (A) AcIATAcmk: IC50 (μM): 213 | (A) AcVATAcmk: IC50 (μM): 450 | (A) AcIAHAcmk: IC50 (μM): 200 | (A) AcIRTAcmk: IC50 (μM): 84 | (A) AcVRHAcmk: IC50 (μM): 27 | (A) AcRVRHAcmk: IC50 (μM): 8
Figure 2 A Screen of Electrophilic Warheads for the Inhibition of Rhomboid Proteases The optimized parent sequence Ac-RVRHA was linked to electrophilic warheads commonly used for targeting serine proteases (reviewed in [Hedstrom, 2002], [Walker and Lynas, 2001]). The apparent IC50 values of the compounds were measured in 0.05% DDM using 10 μM substrate KSp35 ([Ticha et al., 2017]) with 1 hr preincubation. Given are the mean values of 2–3 measurements. […]

T1 sequence (P09391 whole entry): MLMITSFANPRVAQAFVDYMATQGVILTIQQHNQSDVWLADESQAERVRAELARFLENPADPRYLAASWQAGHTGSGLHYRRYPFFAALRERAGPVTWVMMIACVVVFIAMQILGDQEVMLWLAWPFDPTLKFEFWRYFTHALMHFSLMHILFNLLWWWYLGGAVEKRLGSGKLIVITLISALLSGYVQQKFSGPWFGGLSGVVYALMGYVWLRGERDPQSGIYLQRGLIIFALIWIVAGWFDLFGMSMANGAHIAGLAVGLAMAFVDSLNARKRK

For the molecule `CC(=O)N[C@@H](Cc1c[nH]cn1)C(=O)N[C@@H](C)C(=O)C(=O)NCCc1ccccc1` [compound 14], the IC50 is around 65 µM. The “fold decrease in potency compared with the parent compound 9” value (“fold decrease in potency” below) (ratio of apparent IC50 values) is listed as around 150 fold.

For `CC[C@H](C)[C@H](NC(C)=O)C(=O)N[C@@H](C)C(=O)N[C@@H](Cc1c[nH]cn1)C(=O)N[C@@H](C)C(=O)CCl` [AcIAHAcmk] (Ac-IAHA-CH2Cl), the IC50 stood at 200 µM.

`CC(=O)N[C@H](C(=O)N[C@@H](CCCNC(=N)N)C(=O)N[C@@H](Cc1c[nH]cn1)C(=O)N[C@@H](C)C(=O)C(=O)NCCc1ccccc1)C(C)C` [compound 12]: the IC50 came out at 0.55 µM.

`CC(=O)N[C@@H](CCCNC(=N)N)C(=O)N[C@H](C(=O)N[C@@H](CCCNC(=N)N)C(=O)N[C@@H](Cc1c[nH]cn1)C(=O)N[C@@H](C)C(=O)CCl)C(C)C` [AcRVRHAcmk] (Ac-RVRHA-CH2Cl): the IC50 was determined as 8 µM.

Take `CC(=O)N[C@@H](CCCNC(=N)N)C(=O)N[C@H](C(=O)N[C@@H](CCCNC(=N)N)C(=O)N[C@@H](Cc1c[nH]cn1)C(=O)N[C@@H](C)C(=O)NS(C)(=O)=O)C(C)C` [acylsulfonamide, AcRVRHA-acylsulfonamide] (Ac-RVRH-X3): the IC50 was above 1000 µM.

Take `CC[C@H](C)[C@H](NC(C)=O)C(=O)N[C@@H](CCCNC(=N)N)C(=O)N[C@H](C(=O)N[C@@H](C)C(=O)CCl)[C@@H](C)O` [AcIRTAcmk] (Ac-IRTA-CH2Cl): the IC50 is 84 µM.

Turning to “Ac-RVRHA-NH2 [compound 1, AcRVRHA-CONH2]”, the IC50 amounted to 203 µM. Further, for the setting “ratio of apparent IC50 values”, the “fold less potent than the peptidyl boronate” value is “about 25 fold”.

As for `CC(=O)N[C@H](C(=O)N[C@@H](C)C(=O)N[C@H](C(=O)N[C@@H](C)C(=O)CCl)[C@@H](C)O)C(C)C` [AcVATAcmk] (Ac-VATA-CH2Cl), the IC50 was 450 µM.

For the molecule `CC(=O)N[C@@H](CCCNC(=N)N)C(=O)N[C@@H](Cc1c[nH]cn1)C(=O)N[C@@H](C)C(=O)C(=O)NCCc1ccccc1` [compound 13, Ac-RHA-CONH-phenylethyl], the IC50 was 9 µM. Moreover, under “ratio of apparent IC50 values”, the “fold decrease in potency” value was around 20 fold.

Consider `CC(=O)N[C@@H](C)C(=O)C(=O)NCCc1ccccc1` [compound 15, Ac-A-CONH-phenylethyl], for which the IC50 is above 1000 µM. The “fold decrease in potency” value (ratio of apparent IC50 values) was ~2,250 fold.

For the molecule `CC(=O)N[C@H](C(=O)N[C@@H](CCCNC(=N)N)C(=O)N[C@@H](Cc1c[nH]cn1)C(=O)N[C@@H](C)C(=O)CCl)C(C)C` [AcVRHAcmk] (Ac-VRHA-CH2Cl), the IC50 was found to be 27 µM.

As for `CC(=O)N[C@@H](CCCNC(=N)N)C(=O)N[C@H](C(=O)N[C@@H](CCCNC(=N)N)C(=O)N[C@@H](Cc1c[nH]cn1)C(=O)N[C@@H](C)B(O)O)C(C)C` [boronate, AcRVRHA-boronate] (Ac-RVRH-boroAla), the IC50 is 8 µM.

`CC[C@H](C)[C@H](NC(C)=O)C(=O)N[C@@H](C)C(=O)N[C@H](C(=O)N[C@@H](C)C(=O)CCl)[C@@H](C)O` [AcIATAcmk, reference compound] (Ac-IATA-CH2Cl): the IC50 amounted to 213 µM.

Regarding `CC(=O)N[C@@H](CCCNC(=N)N)C(=O)N[C@H](C(=O)N[C@@H](CCCNC(=N)N)C(=O)N[C@@H](Cc1c[nH]cn1)C(=O)N[C@@H](C)C(=O)c1nccs1)C(C)C` [thiazolylketone, AcRVRHA-thiazolylketone] (Ac-RVRH-X4), the IC50 is above 1000 µM.

Regarding `CC(=O)N[C@@H](CCCNC(=N)N)C(=O)N[C@H](C(=O)N[C@@H](CCCNC(=N)N)C(=O)N[C@@H](Cc1c[nH]cn1)C(=O)NC(C)C(=O)C(F)(F)F)C(C)C` (stereo partly shown) [trifluoromethylketone, AcRVRHA-trifluoromethylketone] (Ac-RVRH[ξA]-CF3), the IC50 is above 1000 µM.

The IC50 is the concentration at which inhibition is half-maximal.
